Assay results reported in patent US10766917B2, “Nucleotides for the treatment of cancer” (IDENIX PHARMACEUTICALS LLC, priority 2015, dated 2020).
Read-outs that look alike come from different tables or passages of the source.

Key:
Assay type in all cases: cell-based
HuH-1 cells = test: In vitro inhibition of HuH-1, MTT assay; conditions: read-out: HuH-1: relative IC50
Method: HuH-1 cells were purchased from JCRB and tested with the following method:
Cells are suspended at a specific density in a specific culture medium (see table in 2.Cell lines).
Then, 100 μl of cell suspension are plated per well in 96-well plates.
Compounds or negative controls (DMSO) are added to the cells (100 μl of a compound solution in its specific medium with a final concentration of 0.15% DMSO).
Each compound concentration is tested in duplicate (6 concentrations per compound).
Cells are incubated at 37° C. for 72 h without treating again.
SDS is added to control wells (final concentration of 1%) and kept for 15 min at 37° C. SDS 1% represents the positive control of proliferation inhibition.
Cell supernatant is removed and 100 μl of a MTT (3-[4.5-dimethylthiazol-2-yl]-2.5-diphenyltetrazolium bromide) solution in fresh medium are added per well (MTT final concentration of 0.5 mg/ml) and incubated for 4 h at 37° C.
MTT reaction is stopped and homogenized by adding 100 μl/well of SDS 10%, 0.01M HCl and incubated for 2 h at 37° C.
Absorbance is measured at 570 nm.

MDA-MB-231 = test: In vitro inhibition, CellTiter-Glo (CTG) assay; conditions: Homo sapiens, MDA-MB-231, 72 hr exposure
Method: (§1) Cells were grown in RPMI-1640 supplemented with L-Glutamine and 10% FBS of the following cell lines:
(§2) CCRF-CEM; HL-60; KG-1; CFPAC-1; MiaPACA-2; BxPC-3; HepG2; MDA-MB-231; HCT-116; A498; and NCI-H69
(§3) 18, 96 well plates of each cell line were seeded with the optimized number of cells per well in a total volume of 50 μper well. The plates were left overnight. Plate wells were seeded with 100 pt media for media control. The following day, cells were exposed to test compounds as described below. At the same time as drug exposure, a CTG assay was conducted on the 18th plate for the 0 hr count.
(§4) The compounds were added to cells and medium already on the plate to give desired final concentrations. 50 μL media were added to cell control wells, and 50 μL of mix added to vehicle control wells. 10 μM Doxorubicin was added to appropriate wells as control. Cells exposed to test compound were incubated at 37° C. for 72 hr followed by a CTG assay.
(§5) At the end of the 72 hr exposure period, plates were removed for a CellTiter-Glo (CTG) assay from a 37° C., 5% CO2 incubator and placed on the bench at room temperature for 30 mins. 100 μL of CellTiter-Glo reagent was added and mixed for 2 mins, followed by a further 10 min incubation at room temperature. Luminescence was recorded using Synergy 4.0.

MiaPACA-2 = test: In vitro inhibition, CellTiter-Glo (CTG) assay; conditions: Homo sapiens, MIA PaCa-2, 72 h, 72 hr exposure
Method: as §1, §2, §3, §4, §5

HCT-116 = test: In vitro inhibition, CellTiter-Glo (CTG) assay; conditions: Homo sapiens, HCT-116, 72 h, 72 hr exposure
Method: as §1, §2, §3, §4, §5

BxPC-3 = test: In vitro inhibition, CellTiter-Glo (CTG) assay; conditions: Homo sapiens, BXPC-3, 72 h, 72 hr exposure
Method: as §1, §2, §3, §4, §5

HepG2 = test: In vitro inhibition, CellTiter-Glo (CTG) assay; conditions: Homo sapiens, HepG2, 72 h, 72 hr exposure
Method: as §1, §2, §3, §4, §5

A498 = test: In vitro inhibition, CellTiter-Glo (CTG) assay; conditions: Homo sapiens, A498, 72 h, 72 hr exposure
Method: as §1, §2, §3, §4, §5

HL-60 = test: In vitro inhibition, CellTiter-Glo (CTG) assay; conditions: Homo sapiens, HL-60, 72 h, 72 hr exposure
Method: as §1, §2, §3, §4, §5

NCI-H69 = test: In vitro inhibition, CellTiter-Glo (CTG) assay; conditions: Homo sapiens, NCI-H69, 72 h, 72 hr exposure
Method: as §1, §2, §3, §4, §5

KG-1 = test: In vitro inhibition, CellTiter-Glo (CTG) assay; conditions: Homo sapiens, KG-1, 72 h, 72 hr exposure
Method: as §1, §2, §3, §4, §5

CCRF-CEM = test: In vitro inhibition, CellTiter-Glo (CTG) assay; conditions: Homo sapiens, CCRF-CEM, 72 h, 72 hr exposure
Method: as §1, §2, §3, §4, §5

CFPAC-1 = test: In vitro inhibition, CellTiter-Glo (CTG) assay; conditions: Homo sapiens, CFPAC-1, 72 h, 72 hr exposure
Method: as §1, §2, §3, §4, §5

CC(C)OC(=O)[C@@H](C)CCO[P@]1(=O)OC[C@H]2O[C@@H](n3ccc(N)nc3=O)C(F)(F)[C@@H]2O1 (single isomer, unassigned) [Compound 121 Diastereoisomer 1]
IC50 (HuH-1 cells; Homo sapiens, HuH-1, 72 h): < 300 nM

CC(C)OC(=O)[C@@H](C)CCO[P@@]1(=O)OC[C@H]2O[C@@H](n3ccc(N)nc3=O)C(F)(F)[C@@H]2O1 (single isomer, unassigned) [Compound 121 Diastereoisomer 2]
IC50 (HuH-1 cells; Homo sapiens, HuH-1, 72 h): < 300 nM

CCOC(=O)[C@@H](C)CCO[P@@]1(=O)OC[C@H]2O[C@@H](n3ccc(N)nc3=O)C(F)(F)[C@@H]2O1 (single isomer, unassigned) [Compound 122 Diastereoisomer 1]
IC50 (HuH-1 cells; Homo sapiens, HuH-1, 72 h): < 300 nM

CCOC(=O)[C@@H](C)CCO[P@]1(=O)OC[C@H]2O[C@@H](n3ccc(N)nc3=O)C(F)(F)[C@@H]2O1 (single isomer, unassigned) [Compound 122 Diastereoisomer 2]
IC50 (HuH-1 cells; Homo sapiens, HuH-1, 72 h): < 300 nM

CCOC(=O)[C@H](C)CCO[P@]1(=O)OC[C@H]2O[C@@H](n3ccc(N)nc3=O)C(F)(F)[C@@H]2O1 (single isomer, unassigned) [Compound 123 Diastereoisomer 2]
IC50 (HuH-1 cells; Homo sapiens, HuH-1, 72 h): < 300 nM

CCOC(=O)[C@H](C)CCO[P@@]1(=O)OC[C@H]2O[C@@H](n3ccc(N)nc3=O)C(F)(F)[C@@H]2O1 (single isomer, unassigned; diastereoisomer 1) [Compound 123 Diastereoisomer 1]
IC50 (HuH-1 cells; 72 h): < 300 nM

CC(C)OC(=O)[C@H](C)CCO[P@@]1(=O)OC[C@H]2O[C@@H](n3ccc(N)nc3=O)C(F)(F)[C@@H]2O1 (single isomer, unassigned; diastereoisomer 2) [Compound 120 Diastereoisomer 2]
IC50 (HuH-1 cells; 72 h): < 300 nM

Nc1ccn([C@@H]2O[C@H](COP(=O)(O)NCc3ccccc3)[C@@H](O)C2(F)F)c(=O)n1 [Compound 117]
IC50 (MDA-MB-231): 1000 to 10000 nM
IC50 (MiaPACA-2): < 1000 nM
IC50 (HCT-116): < 1000 nM
IC50 (BxPC-3): < 1000 nM
IC50 (HepG2): < 1000 nM
IC50 (A498): < 1000 nM
IC50 (HL-60): < 1000 nM
IC50 (NCI-H69): < 1000 nM
IC50 (KG-1): < 1000 nM
IC50 (CCRF-CEM): < 1000 nM
IC50 (CFPAC-1): < 1000 nM

Nc1ccn([C@@H]2O[C@H](CO)[C@@H](O)C2(F)F)c(=O)n1 [Gemcitabine, reference compound]
IC50 (HuH-1 cells; Homo sapiens, HuH-1, 72 h): < 300 nM
